Like-named read-outs stand apart in the source and are kept apart here.
Key:
[1] = target: T1, activated blood coagulation factor X (Homo sapiens, UniProt P00742); assay: Inhibitory activity against activated blood coagulation factor X (statement, no method given); format: biochemical
Target sequence in this assay (P00742 235-488 limits assumed): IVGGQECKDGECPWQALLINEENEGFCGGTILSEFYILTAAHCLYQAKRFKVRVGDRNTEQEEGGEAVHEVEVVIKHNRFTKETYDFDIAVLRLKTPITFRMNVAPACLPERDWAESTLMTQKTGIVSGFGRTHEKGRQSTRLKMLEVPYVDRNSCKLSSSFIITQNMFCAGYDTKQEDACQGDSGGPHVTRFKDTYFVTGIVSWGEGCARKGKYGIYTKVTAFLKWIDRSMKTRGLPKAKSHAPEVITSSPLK
Target sequence in this assay (P00742 41-179 partner limits assumed): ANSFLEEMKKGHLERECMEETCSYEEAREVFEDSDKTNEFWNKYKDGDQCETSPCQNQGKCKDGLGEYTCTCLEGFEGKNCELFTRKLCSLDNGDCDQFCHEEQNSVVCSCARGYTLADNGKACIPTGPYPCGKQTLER

[2] = Storage stability test (residual rate by HPLC); format: physicochemical; settings: hydrochloride; for Residual Rate (%): storage at 40° C./90% relative humidity for two months, HPLC; for Storage stability (in words): stored for a long period
Method: (Storage Stability Test) Stability test was carried out under a storage condition of 40° C./90% relative humidity for two months for test substances. The residual rates of test substances were determined by HPLC according to the following conditions. HPLC Condition: • Detection wavelength; 225 nm • Column; CAPCELL PAK C18, MG 5 μm, 3.0 mm I.D.×250 mm • Column temperature; 35° C. • Mobile phase; • 0.02 mol/L phosphate buffer (pH 6.0): acetonitrile mixed solvent • 0→20 min; 42:58 • 20→40 min; 42:58→70:30 • 40→45 min; 70:30 • Flow rate; 0.5 mL/min

[3] = Saturated water solubility; format: physicochemical; settings: for solubility: thermodynamic from solid, water
Method: (Saturated Water Solubility) Approximately 40 mg of test substances is placed in a vessel, and approximately 15 mL of water is added thereto to suspend. The suspensions are warmed at 37° C. with stirring, and approximately 1 mL of aliquots is collected with time. Each of aliquots is filtered through a 0.45 μm filter. Thereafter, 500 μL is taken accurately from the filtrate, and 500 μL of a mixed solvent of water/acetonitrile (1/1) is added thereto to prepare a test solution. Five μL of the test solution is analyzed by a high performance liquid chromatography method according to the following conditions. Among water solubilities at each point of test solutions, the highest concentration is estimated as a saturated water solubility. HPLC Condition: • Detection wavelength; 225 nm • Column; Inertsil ODS-3, 5 μm, 4.6 mm I.D.×250 mm • Column temperature; 30° C. • Mobile phase; • 0.02 mol/L phosphate buffer (pH 3.0): acetonitrile mixed solvent • 0→30 min; 42:58 • Flow rate; […] • Measurement time; 30 min

[4] = Storage under ordinary conditions, retention of crystalline form; format: physicochemical; settings: 25° C./60% relative humidity, long period
prothrombin time (PT) = assay: Prothrombin time (PT) in plasma of orally dosed rats; format: in vivo, Male Wistar rats; settings: PT after administration / before administration; rat plasma, oral, 6.0 mg/mL suspension, 5.0 mL/kg, 30 minutes
Method: (Measurement of Activated Blood Coagulation Factor X Inhibitory Activity and Prothrombin Time (PT)) Male Wistar rats aged 6-9 weeks (SLC) fasted overnight were used. Test substances were suspended in 0.5% methylcellulose solution at the concentration of 6.0 mg/mL. Then 5.0 mL/kg of those was orally administrated into the rats. Then, 30 minutes before and after the administration of the test substances, citrated (1:10 dilution, 3.13% sodium citrate) bloods were collected from the jugular vein. Plasma samples were obtained by centrifugation. Effects of test substances on activated blood coagulation factor X and prothrombin time (PT) were investigated using the plasma samples according to the following procedures. 2) Prothrombin Time (PT). Fifty μL of plasma was put in the process tube and then incubated at 37° C. One minute later, 100 mu L of plasma PT reagent (Boehringer Mannheim) prewarmed at 37° C. was added into the mixture. PT was measured with a coagulometer (ST4, Boehringer Mannheim). The ratio of PT at each time point after administration of the test substance to that of before administration was used as the index of anticoagulation activity.

[5] = Oral bioavailability (statement, no method given); format: in vivo
[6] = target: T1, activated blood coagulation factor X; assay: Activated blood coagulation factor X inhibitory activity in plasma of orally dosed rats; format: in vivo, Male Wistar rats; parameters: purchased Calbiochem; settings: rat plasma 30 minutes after oral administration; 6.0 mg/mL suspension in 0.5% methylcellulose, 5.0 mL/kg
Method: (Measurement of Activated Blood Coagulation Factor X Inhibitory Activity and Prothrombin Time (PT))
Male Wistar rats aged 6-9 weeks (SLC) fasted overnight were used. Test substances were suspended in 0.5% methylcellulose solution at the concentration of 6.0 mg/mL. Then 5.0 mL/kg of those was orally administrated into the rats. Then, 30 minutes before and after the administration of the test substances, citrated (1:10 dilution, 3.13% sodium citrate) bloods were collected from the jugular vein. Plasma samples were obtained by centrifugation. Effects of test substances on activated blood coagulation factor X and prothrombin time (PT) were investigated using the plasma samples according to the following procedures.
1) Activated Blood Coagulation Factor X Inhibitory Activity
2.5 μL of plasma sample, 200 μL of 100 mM tris-200 mM NaCl buffer (pH 8.4) and 10 μL of 0.06 U/mL human activated blood coagulation factor X (Calbiochem) in gelatin-glycine buffer were poured into 96 well microplate. […] The reaction was terminated with the addition of 50 μL of 60% acetic acid and absorbance (405 nm) was measured by a microplate reader (SPECTRAmax250, Molecular Devices). […] The inhibitory % of plasma sample was calculated from absorbance of the control as 100% and this value was used as the index of anti-activated blood coagulation factor X activity in plasma.
Target sequence in this assay (P00742 235-488 limits assumed): as the sequence (P00742 235-488 limits assumed) above
Target sequence in this assay (P00742 41-179 limits assumed): as the sequence (P00742 41-179 partner limits assumed) above

CCCCOC(=O)COc1cc(-c2ccccc2S(C)(=O)=O)ccc1CCNS(=O)(=O)c1cc(C(=N)NO)ccc1O.Cl [formula (I), n-Butyl[4-[2-[2-hydroxy-5-(N-hydroxycarbamimidoyl)benzenesulfontylamino]ethyl]-2′-methanesulfonylbiphenyl-3-yloxy]acetate hydrochloride]
Inhibitory activities against activated blood coagulation factor X (in words) [1]: excellent inhibitory activities

CCCCOC(=O)COc1cc(-c2ccccc2S(C)(=O)=O)ccc1CCNS(=O)(=O)c1cc(C(=N)NO)ccc1O.Cl [Reference Example 1, n-butyl[4-[2-[2-hydroxy-5-(N-hydroxycarbamimidoyl)benzenesulfonylamino]ethyl]-2′-methanesulfonylbiphenyl-3-yloxy]acetate hydrochloride]
Residual Rate (%) [2]: 96.8% | Storage stability (in words) ([2]; listed as crystalline form A): unsatisfactory stabilities

CCCCOC(=O)COc1cc(-c2ccccc2S(C)(=O)=O)ccc1CCNS(=O)(=O)c1cc(C(=N)NO)ccc1O.Cl [Example 1, n-butyl[4-[2-[2-hydroxy-5-(N-hydroxycarbamimidoyl)benzenesulfonylamino]ethyl]-2′-methanesulfonylbiphenyl-3-yloxy]acetate hydrochloride]
Water solubility (in words) [3]: highly water-soluble | solubility ([3]; 37° C., highest concentration over time, read-out: Saturated water solubility): 1600 µg/mL | Stability of crystalline form on storage (in words) [4]: without changing its crystalline form | Ratio of PT (prothrombin time (PT)): 1.50 | Oral bioavailability (in words) [5]: good oral bioavailability | Residual Rate (%) [2]: 99.0% | Storage stability (in words) ([2]; listed as crystalline form B): good storage stabilities | inhibition at 6000 µg/mL (stock) [6]: 58.2%

CCCCOC(=O)COc1cc(-c2ccccc2S(C)(=O)=O)ccc1CCNS(=O)(=O)c1cc(C(=N)NO)ccc1O.Cl.O [Reference Example 2, n-butyl[4-[2-[2-hydroxy-5-(N-hydroxy-carbamimidoyl)benzenesulfonylamino]ethyl]-2′-methanesulfonylbiphenyl-3-yloxy]acetate hydrochloride monohydrate]
Water solubility (in words) [3]: poor water solubility | solubility ([3]; 37 °C): 270 µg/mL
